Publication PMC3109731 (Journal of clinical psychopharmacology, 2010)

Key:
[1] = cited from earlier work
[2] = tested on: pregnant women with major depressive disorder; assay: Depression level on the 17-item Hamilton Rating Scale for Depression; format: in vivo, human; conditions: for Mean HRS-D score: fluoxetine 10 to 80 mg daily
[3] = among the 16 subjects with 2 or more repeated depression scores

For `CNCCC(Oc1ccc(C(F)(F)F)cc1)c1ccccc1` (stereo not drawn) [FLX, fluoxetine], the Expected half-life [1] is listed as 48 to 96 h, the “Time to reach steady-state concentration” value [1] is listed as ≤ 23 days and the “Mean HRS-D score” value ([2]; 12 weeks postpartum) is listed as 7.6 ± 6.5. The “Mean HRS-D score” value ([2]; 20 weeks of gestation) was 7.3 ± 3.3, the “Mean HRS-D score” value ([2]; 30 weeks of gestation) was 8.7 ± 5.6 and the “Mean HRS-D score” value ([2]; 36 weeks of gestation) was 7.1 ± 3.2. For the same compound, the “Subjects with mild to moderate depression levels (HRS-D 12–22)” value [2, 3] was 3 subjects, the “Subjects with remitted depression (HRS-D ≤8)” value [2, 3] was 13 subjects and the “Mean HRS-D score” value ([2]; during delivery) was 8.3 ± 5.9.
